Experiment: gradient 5% acetonitrile 3 min, to 50% in 2 min, to 85% in 15 min, held 3 min, 100 µL/min
Conditions: column: Zorbax Extend-C18 2.1 x 50 mm; eluents: water / acetonitrile, 0.1% formic acid
Method in brief: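 Values are retention times taken from adduct peaks that software picked and an analyst inspected. The pure standards were run as mixtures of ~100 molecules on HPLC linked to a quadrupole time-of-flight mass spectrometer, in positive and negative ionization mode. A Zorbax Extend-C18 column (2.1 × 50 mm, 1.8 μm) was used at 100 μL/min with water and acetonitrile, each including 0.1% formic acid.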

## O=C(NC1CCN(c2cc(-c3cccs3)[nH]n2)C1)c1ccc(Br)cc1 (stereo unspecified)
  RP-LC retention time: 782 s

## Cc1cc(C)c(S(=O)(=O)N2CCC3(CC2)c2nccn2CCN3C)c(C)c1
  RP-LC retention time: 684 s

## Cc1ccc(-c2cc3c(N4CCCC(C(=O)NCC5CC5)C4)nccn3n2)c(C)c1 (stereo unspecified)
  RP-LC retention time: 863 s

## COc1ccc(-c2cc(C(=O)N3CCC(NC(=O)C4CC4)CC3)[nH]n2)cc1
  RP-LC retention time: 652 s

## Cc1sc(-c2nnc(C3CC3)o2)cc1NC(=O)Cc1ccc(F)cc1
  RP-LC retention time: 956 s

## O=C(C1=NN(CCc2ccccc2)c2cc(Cl)ccc2S1(=O)=O)N1CCOCC1
  RP-LC retention time: 906 s

## O=C(Nc1ccccc1)c1c(O)c2cccnc2n(-c2cccc(F)c2)c1=O
  RP-LC retention time: 1210 s

## Cc1ccc2nc3sc(C(=O)NCC4COc5ccccc5O4)cc3c(=O)n2c1 (stereo unspecified)
  RP-LC retention time: 819 s

## COc1ccc(S(=O)(=O)Cc2nc(-c3ccc(Br)cc3)no2)cc1
  RP-LC retention time: 1040 s

## COc1cccc(NC(=O)N2CCc3cn(C)c4cccc(c34)C2)c1
  RP-LC retention time: 771 s

## CCc1ccc(C2=C(C)C(N3CCCN(C(=O)COC)CC3)=NS2(=O)=O)cc1
  RP-LC retention time: 742 s

## COC(=O)CCCC(=O)Nc1ccc2[nH]c(=O)oc2c1
  RP-LC retention time: 608 s

## COc1cccc(Cn2cccc2-c2nc(-c3ccncc3)no2)c1
  RP-LC retention time: 1060 s

## CCn1cc(CC(=O)NCc2cc(F)cc(F)c2)c2cccnc21
  RP-LC retention time: 739 s

## Cc1ccc(S(=O)(=O)N2CCOCC2)cc1-c1nnc(-c2ccc(Cl)cc2)o1
  RP-LC retention time: 1030 s

## COc1ccc(C)cc1NC(=O)C1CCN(S(=O)(=O)c2ccc3c(c2)NC(=O)C(C)O3)CC1 (stereo unspecified)
  RP-LC retention time: 788 s

## CCCn1cc(CCNS(=O)(=O)c2cccc3nsnc23)c2cccnc21
  RP-LC retention time: 791 s

## Cc1ccc2c(Nc3ccc(C)c(Cl)c3)c(C(=O)N3CCOCC3)cnc2n1
  RP-LC retention time: 610 s

## O=C(NCc1cccs1)c1c(O)c2cccnc2n(-c2cccc(F)c2)c1=O
  RP-LC retention time: 1120 s

## CCn1c(=O)c(=O)n(CC(=O)NCc2ccc(C)o2)c2cccnc21
  RP-LC retention time: 688 s

## O=c1c2ccccc2n(Cc2nc(-c3ccc(Br)cc3)no2)c(=O)n1CC1CCCO1 (stereo unspecified)
  RP-LC retention time: 1120 s

## Cc1noc([C@@H]2CC(F)(F)CN2C(=O)c2cocn2)n1
  RP-LC retention time: 667 s

## COc1ccccc1CNC(=O)c1c(C)sc2ccn(CC(C)C)c(=O)c12
  RP-LC retention time: 989 s

## Cc1nnsc1C(=O)N1CCC(CNC(=O)c2ccccc2C(F)(F)F)CC1
  RP-LC retention time: 674 s

## COc1cccc(N2CCN(c3ccnc(SCC(=O)Nc4ccc(Cl)cc4F)n3)CC2)c1
  RP-LC retention time: 941 s

## CCc1nnc(NS(=O)(=O)c2ccc(N)cc2)s1
  RP-LC retention time: 711 s

## CCOC(=O)C1C(=O)C=C(c2ccco2)CC1c1ccccc1Cl (stereo unspecified)
  RP-LC retention time: 1090 s

## CCOC(=O)c1cc(S(=O)(=O)NCCC(=O)N2CCN(c3ccccn3)CC2)cn1C
  RP-LC retention time: 601 s

## CC(NC(=O)C1=C2CCCN2c2ccc(F)cc2S1(=O)=O)c1ccc(F)cc1 (stereo unspecified)
  RP-LC retention time: 935 s

## CC(C)Cc1ccc(S(=O)(=O)N(CCN2CCCCC2C)CC(=O)N2CCNCC2)cc1 (stereo unspecified)
  RP-LC retention time: 621 s

## CCOc1ccc(S(=O)(=O)N2CCCC(C(=O)Nc3ccc(S(N)(=O)=O)cc3)C2)cc1C (stereo unspecified)
  RP-LC retention time: 876 s

## Cc1ccc(CN2C(=O)C3CCCCC3C2=O)cc1S(=O)(=O)N1CCN(c2ccccn2)CC1 (stereo unspecified)
  RP-LC retention time: 724 s

## CCOC(=O)c1[nH]c(C)c(CCC(=O)N2CCC(C(=O)NCCCOC(C)C)CC2)c1C
  RP-LC retention time: 706 s

## Cc1ccc(C)c(CNC(=O)C2CCN(CCc3cn(C)c4ncccc34)CC2)c1
  RP-LC retention time: 639 s

## CSc1ccc(CNC(=O)C2CCCN(c3ccc(=O)n(-c4cccc(F)c4)n3)C2)cc1 (stereo unspecified)
  RP-LC retention time: 888 s

## COc1ccc(OC)c(NC(=O)C2CCCN(c3nnc4ccc(Cl)cn34)C2)c1 (stereo unspecified)
  RP-LC retention time: 810 s

Reference: the METLIN SMRT retention time set (Domingo-Almenara et al. 2019)
